{"source": "ChEMBL document CHEMBL1201862", "about": "“PubChem BioAssay data set” (2004)", "key": {"[1]": {"assay": "Luminescence Cell Based Dose Confirmation HTS to Identify Activators of 5'UTR Stem-Loop Driven Alpha-Synuclein mRNA Translation in H4 Neuroglioblastoma Cells. [Related pubchem assays (depositor defined):AID1813, AID1829]", "format": "functional", "details": "Homo sapiens"}, "[2]": {"target": "T1, Voltage-gated N-type calcium channel alpha-1B subunit/Amyloid beta A4 precursor protein-binding family A member 1 (Homo sapiens, UniProt Q00975+Q02410)", "T1 sequence (Q00975 whole entry)": "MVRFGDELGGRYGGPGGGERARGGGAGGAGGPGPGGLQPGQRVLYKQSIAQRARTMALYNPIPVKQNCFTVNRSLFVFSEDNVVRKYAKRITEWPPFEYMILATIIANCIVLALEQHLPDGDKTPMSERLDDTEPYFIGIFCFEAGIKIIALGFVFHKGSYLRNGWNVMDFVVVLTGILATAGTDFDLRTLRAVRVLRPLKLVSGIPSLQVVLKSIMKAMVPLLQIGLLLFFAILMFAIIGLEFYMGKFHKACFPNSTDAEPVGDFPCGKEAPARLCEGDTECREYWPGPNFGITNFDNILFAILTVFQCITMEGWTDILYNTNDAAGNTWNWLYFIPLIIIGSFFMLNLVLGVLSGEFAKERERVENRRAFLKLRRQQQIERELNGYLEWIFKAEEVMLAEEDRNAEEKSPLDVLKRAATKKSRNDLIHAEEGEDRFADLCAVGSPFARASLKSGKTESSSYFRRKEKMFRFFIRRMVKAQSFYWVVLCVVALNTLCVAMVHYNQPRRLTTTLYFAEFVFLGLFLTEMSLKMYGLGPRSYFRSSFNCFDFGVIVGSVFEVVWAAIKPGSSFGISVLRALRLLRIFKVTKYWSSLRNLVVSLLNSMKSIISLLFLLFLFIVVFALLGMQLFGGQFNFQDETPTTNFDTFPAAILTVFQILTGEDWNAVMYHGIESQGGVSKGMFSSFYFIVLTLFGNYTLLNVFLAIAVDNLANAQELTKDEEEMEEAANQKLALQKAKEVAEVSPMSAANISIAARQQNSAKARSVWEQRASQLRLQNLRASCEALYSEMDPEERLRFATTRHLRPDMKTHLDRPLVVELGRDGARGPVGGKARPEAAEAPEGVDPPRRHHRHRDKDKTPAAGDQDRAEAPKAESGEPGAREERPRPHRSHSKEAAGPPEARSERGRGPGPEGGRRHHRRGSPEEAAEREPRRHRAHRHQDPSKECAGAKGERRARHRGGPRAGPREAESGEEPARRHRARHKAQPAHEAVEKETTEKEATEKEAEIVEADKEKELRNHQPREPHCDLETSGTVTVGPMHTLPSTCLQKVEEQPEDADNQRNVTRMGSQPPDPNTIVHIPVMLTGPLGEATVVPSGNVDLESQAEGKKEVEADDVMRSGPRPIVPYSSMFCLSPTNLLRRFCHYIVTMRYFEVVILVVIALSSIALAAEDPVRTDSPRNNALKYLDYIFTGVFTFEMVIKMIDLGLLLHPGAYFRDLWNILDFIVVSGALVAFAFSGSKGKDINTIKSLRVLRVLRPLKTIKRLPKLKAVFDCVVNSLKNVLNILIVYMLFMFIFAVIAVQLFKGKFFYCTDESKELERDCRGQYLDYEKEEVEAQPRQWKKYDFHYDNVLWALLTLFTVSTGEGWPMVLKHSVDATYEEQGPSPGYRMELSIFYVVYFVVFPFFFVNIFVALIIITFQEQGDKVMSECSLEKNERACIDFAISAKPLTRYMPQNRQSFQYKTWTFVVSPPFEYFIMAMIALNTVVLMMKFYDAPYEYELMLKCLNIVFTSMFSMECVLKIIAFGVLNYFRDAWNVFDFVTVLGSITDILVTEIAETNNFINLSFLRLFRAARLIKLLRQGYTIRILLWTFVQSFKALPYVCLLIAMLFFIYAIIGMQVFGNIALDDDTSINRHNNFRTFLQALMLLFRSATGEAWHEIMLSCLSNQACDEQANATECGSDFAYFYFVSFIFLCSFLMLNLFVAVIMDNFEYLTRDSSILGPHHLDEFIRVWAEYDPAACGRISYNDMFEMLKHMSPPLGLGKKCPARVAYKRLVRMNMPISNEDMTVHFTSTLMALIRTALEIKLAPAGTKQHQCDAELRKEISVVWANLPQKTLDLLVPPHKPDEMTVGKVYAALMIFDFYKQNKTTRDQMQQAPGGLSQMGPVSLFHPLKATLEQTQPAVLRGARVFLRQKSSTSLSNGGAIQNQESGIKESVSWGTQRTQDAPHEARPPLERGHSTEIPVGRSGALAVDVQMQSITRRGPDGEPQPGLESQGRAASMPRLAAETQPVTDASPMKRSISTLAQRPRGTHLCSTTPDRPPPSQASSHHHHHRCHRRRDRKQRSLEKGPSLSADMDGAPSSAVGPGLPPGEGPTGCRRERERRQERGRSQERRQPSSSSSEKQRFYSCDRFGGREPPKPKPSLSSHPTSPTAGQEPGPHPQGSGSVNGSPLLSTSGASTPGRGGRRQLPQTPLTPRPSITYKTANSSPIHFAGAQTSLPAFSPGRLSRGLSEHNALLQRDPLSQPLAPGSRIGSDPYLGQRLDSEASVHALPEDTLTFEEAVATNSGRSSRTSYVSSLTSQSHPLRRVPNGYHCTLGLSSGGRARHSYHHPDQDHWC", "T1 sequence (Q02410 whole entry)": "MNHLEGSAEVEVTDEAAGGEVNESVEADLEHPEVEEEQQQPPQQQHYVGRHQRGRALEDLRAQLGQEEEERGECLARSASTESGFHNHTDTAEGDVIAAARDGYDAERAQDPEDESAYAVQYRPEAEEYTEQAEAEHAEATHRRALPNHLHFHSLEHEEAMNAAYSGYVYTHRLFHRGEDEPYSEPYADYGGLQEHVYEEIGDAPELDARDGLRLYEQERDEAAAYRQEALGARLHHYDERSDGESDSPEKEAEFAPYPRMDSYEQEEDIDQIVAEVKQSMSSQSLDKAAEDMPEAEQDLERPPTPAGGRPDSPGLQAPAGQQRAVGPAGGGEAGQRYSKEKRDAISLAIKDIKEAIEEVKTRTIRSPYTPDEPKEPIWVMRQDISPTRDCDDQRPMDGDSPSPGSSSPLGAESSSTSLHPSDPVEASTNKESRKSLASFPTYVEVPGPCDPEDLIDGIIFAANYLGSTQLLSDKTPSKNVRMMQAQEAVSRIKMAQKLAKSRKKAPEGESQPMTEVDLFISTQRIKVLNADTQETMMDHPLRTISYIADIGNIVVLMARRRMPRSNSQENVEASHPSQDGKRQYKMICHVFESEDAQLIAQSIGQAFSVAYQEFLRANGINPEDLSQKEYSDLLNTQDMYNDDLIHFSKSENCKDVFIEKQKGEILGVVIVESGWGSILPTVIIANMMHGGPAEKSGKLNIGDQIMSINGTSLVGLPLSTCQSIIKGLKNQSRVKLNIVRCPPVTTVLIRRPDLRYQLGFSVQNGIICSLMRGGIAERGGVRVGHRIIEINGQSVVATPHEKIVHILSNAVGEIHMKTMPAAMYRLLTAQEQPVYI", "assay": "disruptors of Mint-PDZ/N-type channel peptide interaction – biochemical, HTRF, set 2, SAR follow-up (AID 434980)", "format": "functional"}, "[3]": {"target": "Female germline-specific tumor suppressor gld-1 (Caenorhabditis elegans, UniProt Q17339)", "sequence (Q17339 whole entry)": "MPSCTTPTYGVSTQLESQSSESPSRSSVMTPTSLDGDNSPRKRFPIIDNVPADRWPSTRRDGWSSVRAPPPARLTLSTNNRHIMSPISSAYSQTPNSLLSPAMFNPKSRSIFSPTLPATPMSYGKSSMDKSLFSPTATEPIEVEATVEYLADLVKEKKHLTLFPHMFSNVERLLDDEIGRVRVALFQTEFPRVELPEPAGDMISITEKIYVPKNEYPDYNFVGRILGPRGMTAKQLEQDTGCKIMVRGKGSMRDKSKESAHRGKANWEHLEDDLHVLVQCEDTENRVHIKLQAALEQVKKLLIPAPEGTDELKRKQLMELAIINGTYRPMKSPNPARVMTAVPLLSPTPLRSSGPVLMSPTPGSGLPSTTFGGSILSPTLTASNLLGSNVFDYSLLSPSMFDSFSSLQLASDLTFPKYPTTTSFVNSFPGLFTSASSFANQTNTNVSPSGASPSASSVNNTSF", "assay": "inhibitors of GLD-1 binding to TGE RNA, dose response, biochemical, fluorescence polarization, C. elegans (AID 2802);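 further: fluorescence polarization of labeled TGE RNA bound by purified gld-1 protein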"}, "[4]": {"target": "T1, Voltage-gated N-type calcium channel alpha-1B subunit/Amyloid beta A4 precursor protein-binding family A member 1", "format": "protein assay"}, "Protein Rev": {"target": "Protein Rev (Human immunodeficiency virus type 1 group M subtype B (isolate HXB2)(HIV-1), UniProt P04618)", "sequence (P04618 whole entry)": "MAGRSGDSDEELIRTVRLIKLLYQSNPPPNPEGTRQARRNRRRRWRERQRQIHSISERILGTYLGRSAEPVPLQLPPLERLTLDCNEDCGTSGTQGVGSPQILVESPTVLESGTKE", "assay": "inhibitors of Rev binding to RRE RNA, dose response, biochemical, fluorescence polarization, HIV-1 (AID 434976)", "design": "species or system Human immunodeficiency virus 1"}, "[5]": {"target": "T2, Apoptotic protease-activating factor 1 (Homo sapiens, UniProt O14727)", "T2 sequence (O14727 whole entry)": "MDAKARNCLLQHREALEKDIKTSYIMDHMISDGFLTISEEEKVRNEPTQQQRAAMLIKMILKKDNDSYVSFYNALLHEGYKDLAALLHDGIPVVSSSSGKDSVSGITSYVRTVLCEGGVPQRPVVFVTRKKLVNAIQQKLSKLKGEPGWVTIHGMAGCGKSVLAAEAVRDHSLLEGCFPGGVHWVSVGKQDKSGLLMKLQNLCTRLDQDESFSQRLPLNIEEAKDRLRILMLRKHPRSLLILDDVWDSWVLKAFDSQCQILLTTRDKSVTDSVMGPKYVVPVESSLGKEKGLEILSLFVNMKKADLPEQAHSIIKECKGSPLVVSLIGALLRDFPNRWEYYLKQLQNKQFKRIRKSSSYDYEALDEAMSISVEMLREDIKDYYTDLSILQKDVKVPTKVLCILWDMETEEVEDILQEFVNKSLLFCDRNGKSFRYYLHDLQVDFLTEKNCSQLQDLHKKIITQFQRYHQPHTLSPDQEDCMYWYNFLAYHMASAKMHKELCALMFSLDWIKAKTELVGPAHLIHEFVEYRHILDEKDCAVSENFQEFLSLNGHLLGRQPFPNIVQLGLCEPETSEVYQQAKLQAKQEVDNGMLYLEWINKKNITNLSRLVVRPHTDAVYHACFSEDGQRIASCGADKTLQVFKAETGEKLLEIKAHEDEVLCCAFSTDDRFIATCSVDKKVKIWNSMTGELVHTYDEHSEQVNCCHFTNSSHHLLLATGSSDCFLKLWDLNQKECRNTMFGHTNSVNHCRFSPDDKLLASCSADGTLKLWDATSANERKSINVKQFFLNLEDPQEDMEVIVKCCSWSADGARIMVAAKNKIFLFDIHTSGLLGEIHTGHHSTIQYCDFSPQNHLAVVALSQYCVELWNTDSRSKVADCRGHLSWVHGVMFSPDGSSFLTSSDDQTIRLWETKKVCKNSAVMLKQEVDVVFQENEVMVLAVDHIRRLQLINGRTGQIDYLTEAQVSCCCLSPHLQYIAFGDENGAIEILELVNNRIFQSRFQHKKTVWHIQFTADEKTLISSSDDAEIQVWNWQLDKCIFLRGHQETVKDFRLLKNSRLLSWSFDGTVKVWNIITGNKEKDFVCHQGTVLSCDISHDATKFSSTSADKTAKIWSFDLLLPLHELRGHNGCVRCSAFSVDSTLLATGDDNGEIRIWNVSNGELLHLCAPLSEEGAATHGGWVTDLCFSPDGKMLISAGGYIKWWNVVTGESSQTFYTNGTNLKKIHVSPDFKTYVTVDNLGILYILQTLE", "format": "functional"}, "[6]": {"target": "T1, Voltage-gated N-type calcium channel alpha-1B subunit/Amyloid beta A4 precursor protein-binding family A member 1", "format": "protein assay", "remark": "listed apart in the source"}, "Trypsin": {"target": "Trypsin (Sus scrofa, UniProt P00761)", "sequence (P00761 whole entry)": "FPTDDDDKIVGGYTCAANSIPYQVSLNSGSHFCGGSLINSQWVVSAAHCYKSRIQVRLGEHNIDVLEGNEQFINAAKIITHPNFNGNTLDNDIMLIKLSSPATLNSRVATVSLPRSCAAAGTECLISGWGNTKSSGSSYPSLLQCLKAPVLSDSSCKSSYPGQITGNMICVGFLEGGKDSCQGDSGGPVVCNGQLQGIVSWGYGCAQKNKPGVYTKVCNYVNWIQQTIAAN", "assay": "porcine trypsin inhibitors, dose response, selectivity assay for Rce1 protease inhibitor project, biochemical, quenched peptide fluorescence, cherry-pick (AID 488789)"}, "CAAX prenyl protease 2": {"target": "T3, CAAX prenyl protease 2 (Homo sapiens, UniProt Q9Y256)", "T3 sequence (Q9Y256 whole entry)": "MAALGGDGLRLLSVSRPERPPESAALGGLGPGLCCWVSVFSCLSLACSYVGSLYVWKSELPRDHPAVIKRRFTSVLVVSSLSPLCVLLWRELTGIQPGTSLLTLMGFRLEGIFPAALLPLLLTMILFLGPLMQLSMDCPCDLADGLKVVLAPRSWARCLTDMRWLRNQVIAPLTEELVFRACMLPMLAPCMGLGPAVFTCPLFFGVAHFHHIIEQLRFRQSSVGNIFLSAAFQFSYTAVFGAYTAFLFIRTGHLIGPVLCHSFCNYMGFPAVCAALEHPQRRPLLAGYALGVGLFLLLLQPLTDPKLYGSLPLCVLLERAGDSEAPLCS", "assay": "human Rce1 protease inhibitors, dose response, biochemical, yeast membranes, quenched-peptide fluorescence, cherry-pick (AID 588849)"}}, "note": "Activity calls are given as the source filed them.", "data": [{"compound": "FC(F)(F)c1ccc(Cl)c(Nc2nnc(-c3ccncc3)s2)c1", "values": [{"measurement": "EC50", "setting": "[1]", "value": "> 195 µM (inactive)"}]}, {"compound": "O=C(NC1CCc2ccccc2C1)c1cc(-c2ccco2)nc2ccccc12", "note": "(centres undefined)", "values": [{"measurement": "IC50", "setting": "[2]", "value": "> 56.8 µM (inactive)"}]}, {"compound": "Nc1cc2nc3ccccc3nc2cc1N", "values": [{"measurement": "IC50", "setting": "[3]", "value": "4.97 µM (active)"}, {"measurement": "IC50", "setting": "[4]", "value": "9.86 µM (active)"}, {"measurement": "IC50", "setting": "Protein Rev", "value": "9.53 µM (active)"}, {"measurement": "IC50", "setting": "[5]", "value": "> 100 µM (inactive)"}, {"measurement": "IC50", "setting": "[6]", "value": "> 50 µM (inactive)"}]}, {"compound": "C=CCn1c(=O)c2c(nc(-c3ccc(S(=O)(=O)O)cc3)n2C)n(C)c1=O", "values": [{"measurement": "AC50", "setting": "Trypsin", "value": "1.41 µM (active)"}, {"measurement": "AC50", "setting": "CAAX prenyl protease 2", "value": "5.44 µM (active)"}]}]}
